Assay results taken from US20090023687A1, “Method for Controlling Phytopathogenic Organisms” (SYNGENTA CROP PROTECTION, INC., priority 2005, published 2009).

Key:
Type in all cases: in vivo
[1] = system: Phakopsora pachyrhizi; assay: Application on whole plants: leaf disc test with Phakopsora pachyrhizi on glyphosate sensitive soybean (Example 5)
Text: (§1) A synergistic effect exists whenever the action of an active ingredient combination is greater than the action expected from the effect of the individual components.
(§2) The action to be expected (E) for a given active ingredient combination obeys the so-called COLBY formula and can be calculated as follows (COLBY, S. R. “Calculating synergistic and antagonistic responses of herbicide combination”. Weeds, Vol. 15, pages 20-22; 1967):
(§3) ppm=milligrams of active ingredient (=a.i.) per litre of spray mixture X=% action by active ingredient I using p ppm of active ingredient Y=% action by active ingredient II using q ppm of active ingredient.
(§4) According to Colby, the expected (additive) action of active ingredients I+II using p+q ppm of active ingredient is
(§5) If the action actually observed (O) is greater than the expected action (E), then the action of the combination is superadditive, i.e. there is a synergistic effect.
A series of leaf disc tests were conducted to show the effects of tank mixtures of glyphosate and pesticides or plant activators on Asian soybean rust. The soybean variety tested was brand Williams82 glyphosate sensitive soybean. The leaf source for the testing was the first trifoliate leaf. Six (6) repetitions for each formulation and at each rate were conducted. Treatment of whole plants with the recited active ingredients was conducted 4 weeks after planting. After application, leaf disks were cut and inoculated with Phakopsora pachyrhizi (Asian soybean rust (ASR)) one (1) day after treatment. Evaluation of the leaf was conducted ten (10) days after inoculation and the mean percent infestation of the six repetitions is reported in Tables 12-14.
As glyphosate source Touchdown® HiTech or Zapp® QI was used. The fungicides were used as commercial formulations: Cantus® WG50 fungicide comprising boscalid (BASF AG), Quadris® SC250 fungicide and Bion® WG50 plant activator comprising acibenzolar-S-methyl. The rates of the active ingredients used in the tests are set in Tables 12-14 as g active ingredient (a.i.)/hectare (ha). The spray volume was 200 l/ha.

[2] = system: Phakopsora pachyrhizi; assay: Leaf disc test with Phakopsora pachyrhizi on glyphosate resistant soybean (Example 1)
Text: as §1, §2, §3, §4, §5
A series of leaf disc tests were conducted to show the effects of tank mixtures of glyphosate and fungicides on Asian soybean rust. The soybean variety tested was NK Brand S40-R9 glyphosate resistant soybean. The leaf source for the testing was the first trifoliate leaf. Six (6) repetitions for each formulation and at each rate were conducted. Treatment of the leaf with the recited active ingredients was conducted 29 days after planting. The leaves were inoculated with Phakopsora pachyrhizi (Asian soybean rust (ASR)) one (1) day after treatment. Evaluation of the leaf was conducted ten (10) days after inoculation and the mean percent infestation of the six trials is reported in Table 1.
The glyphosate source was Zapp® QI herbicide (Syngenta Corp.), containing the potassium salt of glyphosate as well as an adjuvant system. The fungicide used was Priori® Xtra (Syngenta Corp.), which is a suspension concentrate containing 200 g/L of azoxystrobin (AZ) and 80 g/L of cyproconazole (CCZ). The rates of the active ingredients used in the tests are set forth in the Table as mg active ingredient (a.i.)/L.

[3] = system: Puccinia recondita; assay: Greenhouse trial with Puccinia recondita on glyphosate sensitive wheat (Example 3); conditions: read-out: % activity observed
Text: as §1, §2, §3, §4, §5
Greenhouse tests were conducted to show the effects of tank mixtures of glyphosate and the ortho-substituted phenyl-amide (OPA) fungicides represented by structures F-10, F-5 and F-9 on cereal rust Puccinia recondita. The wheat variety tested was brand Kanzler glyphosate sensitive wheat. Three (3) repetitions for each formulation and at each rate were conducted. Treatment of the plants with the recited active ingredients was conducted preventatively 16 days after planting. The leaves were inoculated with Puccinia recondita one (1) day after treatment. Evaluation of the leaf was conducted […] after inoculation and the mean percent infestation of the three repetitions is reported in Tables 5-7.
The glyphosate source was Zapp® QI herbicide containing the potassium salt of glyphosate as well as an adjuvant system. The compound OPA F-5 used was a compound of formula F-5, wherein the ratio of racemic compounds of formula F-3 (syn) to racemic compounds of formula F-4 (anti) was 9:1. The compound OPA F-9 used was a compound of formula F-9, wherein the ratio of racemic compounds of formula F-7 (trans) to racemic compounds of formula F-8 (cis) was around 100:1. The fungicides used were EC 100 formulations of OPA F-10, OPA F-5 and OPA F-9 which are emulsion concentrates containing 100 ga.i./L. The rates of the active ingredients used in the tests are set in Tables 5-7 as mg active ingredient (a.i.)/L.

[4] = Glyphosate TD HiTech SL523 200 g a.i./ha
[5] = Glyphosate TD HiTech SL523 500 g a.i./ha
[6] = Glyphosate TD HiTech SL523 600 g a.i./ha

Compound O=C(O)CNCP(=O)(O)O [Glyphosate, glyphosate] has an Activity observed % [1, 4] of 7%, a Leaf attack % [1, 4] of 58% and an Activity observed % [1, 5] of 10%. The Leaf attack % [1, 5] was 56%, the Activity observed % [1, 6] was 19% and the Leaf attack % [1, 6] was 50%. The “% Leaf attack” value ([2]; Glyphosate 0.1 mg a.i./L (Zapp QI)) was 90%, the “% Leaf attack” value ([2]; Glyphosate 0.39 mg a.i./L (Zapp QI)) was 90% and the “% Leaf attack” value ([2]; Glyphosate 1.56 mg a.i./L (Zapp QI)) was 100%. The “% Leaf attack” value ([2]; Glyphosate 6.25 mg a.i./L (Zapp QI)) was 100%, the “% Leaf attack” value ([2]; Glyphosate 25 mg a.i./L (Zapp QI)) was 100% and the “% Leaf attack” value ([2]; Glyphosate 100 mg a.i./L (Zapp QI)) was 100%. It also gave an inhibition at 0.1 µg/mL ([2]; Phakopsora pachyrhizi, foliar, Glyphosate 0.1 mg a.i./L (Zapp QI), read-out: % Activity observed) of 6%, an inhibition at 0.39 µg/mL ([2]; Phakopsora pachyrhizi, foliar, Glyphosate 0.39 mg a.i./L (Zapp QI), read-out: % Activity observed) of 6% and an inhibition at 1.56 µg/mL ([2]; Phakopsora pachyrhizi, foliar, Glyphosate 1.56 mg a.i./L (Zapp QI), read-out: % Activity observed) of 0%. It also gave an inhibition at 6.25 µg/mL ([2]; Phakopsora pachyrhizi, foliar, Glyphosate 6.25 mg a.i./L (Zapp QI), read-out: % Activity observed) of 0%, an inhibition at 25 µg/mL ([2]; Phakopsora pachyrhizi, foliar, Glyphosate 25 mg a.i./L (Zapp QI), read-out: % Activity observed) of 0% and an inhibition at 100 µg/mL ([2]; Phakopsora pachyrhizi, foliar, Glyphosate 100 mg a.i./L (Zapp QI), read-out: % Activity observed) of 0%. For the same compound, the inhibition at 66 µg/mL ([3]; Glyphosate 66 mg a.i./L (Zapp QI)) was 0% and the inhibition at 200 µg/mL ([3]; Glyphosate 200 mg a.i./L (Zapp QI)) was 42%.
